Test results from patent US7423181B2, “Aminoalkoxy-functional chalcones” (Lica Pharmaceuticals A/S, priority 2002, dated 2008).
Converted amounts (≈) assume the structure as drawn.

Tests used:
[1] = Determination of solubility; format: physicochemical; conditions: aqueous buffer at pH 7.4
Protocol: Determination of Solubility
Solubility of the compounds was determined by preparing a saturated solution of compound in 0.3 M phosphate buffer (pH 7.4±0.3) in a brown glass tube. The suspensions were rotated slowly for 24 hours. Aliquots were centrifuged for 10 minutes at 14.000 rpm and supernatants were diluted in 40% (v/v) acetonitrile in water prior to HPLC analysis. Concentrations of analytes were quantified against a standard curve and used as term of solubility. The HPLC-UV method used for the assessment of solubility is the same as used in the in vitro metabolism assay.

[2] = system: dihydroorotate dehydrogenase (DHODH); assay: DHODH assay; format: biochemical; conditions: at 10 μM
Protocol: 100 μl chalcone or 0.1 M Tris-HCl pH 8.0 is added to a well in a 96-wells microtiter plate. Then 50 μl enzyme dilution is added. The microtiter plate is placed in the Powerwavex340 and the enzymatic reactions starts when adding 100 μl assay mixture. The reaction are measured every 20 sec. for 10 min. The samples with chalcones are compared with the samples with 0.1 M Tris-HCl pH 8.0 and the percent inhibition is calculated.
Enzyme dilution: The solution of recombinant purified enzyme is dissolved in 0.1 M Tris-HCl pH 8 to give an initial velocity of 0.04-0.05 ΔA/min.
2,6-dichlorophenolindophenol (DCIP)-stock solution: 40 mg DCIP and 10 ml 99% Ethanol are mixed for 10 min at RT. Then 100 μl 1.0 M Tris-HCl pH 8 and miliQ H2O are added to a final volume of 100 ml. The A600 of the DCIP-stock solution are measured in a microtiter plate on the Powerwavex340 (Bio-Tek instruments,Inc.)
[…]: 25 mM dihydroorotate stock-solution is prepared by first dissolving in the same amount of mol NaOH and then miliQ H2O is added to the final volume.
Assay mix (10 ml solution): 600 μl of DHODH-stock solution and X ml (depending on the A600 value of stock-solution) DCIP to a final A600=2.5 are mixed. Then 0.1 M Tris-HCl pH 8.0 are added to a final volume of 10 ml.
Preparation of compound soluton: A 10 mM stock-solution of compound (e.g. a chalcone derivative) is made in dimethylsulfoxid (DMSO). The compound is then diluted in 0.1 M Tris-HCl pH 8 to the test concentrations. The final DMSO concentration in the sample is 10%

[3] = system: Bacteroides fragilis, Clostridium perfringens, Clostridium difficele; format: cell-based; conditions: single concentration of compound (100 μM)
[4] = system: Staphylococcus aureus ATCC33591(resistant to methicillin); assay: MIC determination in broth microdilution assay; conditions: B: Staphylococcus aureus ATCC33591(resistant to methicillin)
[5] = system: Staphylococcus aureus ATCC29213; assay: MIC determination in broth microdilution assay; conditions: A: Staphylococcus aureus ATCC29213
[6] = system: Enterococcus faecalis ATCC29212; assay: MIC determination in broth microdilution assay; conditions: D: Enterococcus faecalis ATCC29212
Eschericia coli ESS = assay: MIC determination in broth microdilution assay
[7] = system: Plasmodium falciparum 3D7; assay: Plasmodium falciparum assay; format: cell-based; conditions: Plasmodium falciparum 3D7 (Table 2); read-out: IC50
[8] = system: Enterococcus faecium #17501 (vancomycin-resistant clinical isolate); assay: MIC determination in broth microdilution assay; conditions: E: Enterococcus faecium #17501 (vancomycin-resistant)
[9] = system: Eschericia coli ATCC25922; assay: MIC determination in broth microdilution assay
[10] = Determination of metabolic stability (liver microsomes); format: in vitro ADME; conditions: rat liver microsomes, 20 μM, 15 min
Protocol: Determination of Metabolic Stability
Incubations were performed with Wistar rat liver microsomes (0.25 mg/ml) in 2% sodium bicarbonate solution. NADP (0.13 mg/ml), glucose-6-phosphate (0.63 mg/ml) and glucose-6-phosphate dehydrogenase (0.38 units/ml) were used as NADPH generation system and UDPGA (0.48 mg/ml) was added to include the phase II reaction, glucuronic acid conjugation, in the assay. After 5 minutes of pre-incubation the reaction was started by addition of the test article to give a final concentration of 20 μM. Samples were incubated for 15 min at 37° C. and the reactions were terminated by addition of equal volumes of acetonitrile. Blank incubations were performed at the same concentration but without addition of microsomes. Both blank and microsome-containing samples were made in replicats of three. Prior to analysis samples were centrifuged for 10 min. at 3500 rpm,HPLC system:
Initial conditions were 40% mobile phase A (acetonitrile) and 60% mobile phase B (10 mM ammonium acetate pH 9.5). During the first 20 minutes, the mobile phase was changed via a linear gradient to 90% A and 10% B. This was followed by a 5 minutes linear gradient to initial conditions, which were maintained for 5 min. The flow rate was 0.20 m)/min and injection volume 10 μl.

L. major promastigotes = assay: Leishmania promastigote assay
[11] = system: panel of 10 different non-fastidious bacteria; assay: Screening against panel of non-fastidious bacteria

In the case of `COc1ccc(C(=O)C=Cc2cc(-c3ccccc3Cl)ccc2OCCN(C)C)c(OC)c1OC` [Compound C018, (E)-3-[2′-Chloro-4-(2-dimethylamino-ethoxy)-biphenyl-3-yl]-1-(2,3,4-trimethoxy-phenyl)-propenone], the Solubility [1] is reported as 1.5 mg/mL (≈ 3.02 mM).

In the case of `COc1ccc(C(=O)/C=C/c2cc(-c3ccccc3C)ccc2OCCN(C)C)c(Cl)c1` [Compound C022, (E)-1-(2-Chloro-4-methoxy-phenyl)-3-[4-(2-dimethylamino-ethoxy)-2′-methyl-biphenyl-3-yl]-propenone], the “Inhibition of DHODH” value [2] is reported as 21%.

For `Cc1cc(C)cc(-c2ccc(OCCN(C)C)c(C=CC(=O)c3cccc(F)c3)c2)c1` [Compound C079, (E)-3-[4-(2-Dimethylamino-ethoxy)-3′,5′-dimethyl-biphenyl-3-y]-1-(3-fluoro-phenyl)-propenone], the “activity against anaerobic bacteria” value [3] was “activity against all microorganisms within the test panel”.

Work on `Cc1cc(C)cc(-c2ccc(OCCN(C)C)c(/C=C/C(=O)c3cccc(NCCN(C)C)c3)c2)c1` [Compound C075, (E)-3-[4-(2-Dimethylamino-ethoxy)-3′,5′-dimethyl-biphenyl-3-yl]-1-[3-(2-dimethylamino-ethylamino)-phenyl]-propenone] yielded an MIC [4] of 4.7 µM (≈ 2.28 µg/mL), an MIC [5] of 4.7 µM (≈ 2.28 µg/mL) and a Solubility [1] of 4.1 mg/mL (≈ 8.44 mM). For the same compound, the MIC [6] was 9.4 µM (≈ 4.57 µg/mL), the “activity against ESS strain of E.coli” value (Eschericia coli ESS) was “high activity” and the MIC (Eschericia coli ESS; H: Eschericia coli ESS) was 4.7 µM (≈ 2.28 µg/mL). The IC50 [7] was 0.5 µM, the MIC [8] was 9.4 µM (≈ 4.57 µg/mL) and the “activity against E coli ATCC25922” value [9] was “high activity”. For the same compound, the MIC ([9]; G: Eschericia coli ATCC25922) was 9.4 µM (≈ 4.57 µg/mL) and the “Metabolic turn-over in vitro” value [10] was 8%.

In the case of `COc1ccc(C(=O)/C=C/c2cc(-c3ccccc3C)ccc2OCCN(C)C)c(F)c1` [Compound C020, (E)-3-[4-(2-Dimethylamino-ethoxy)-2′-methyl-biphenyl-3-yl]-1-(2-fluoro-4-methoxy-phenyl)-propenone], the “Inhibition of DHODH” value [2] is reported as 18% and the IC50 (L. major promastigotes; L. major) is reported as 0.03 µM.

In the case of `CN(C)CCOc1ccc(C(C)(C)C)cc1/C=C/C(=O)c1ccccc1NS(=O)(=O)c1ccccc1` [Compound C027, N-(2-{3-[5-tert-Butyl-2-(2-dimethylamino-ethoxy)-phenyl]-(E)-acryloyl}-phenyl)-benzenesulfonamide], the “Inhibition of DHODH” value [2] is reported as 22%.

For `COc1ccccc1-c1ccc(OCCN(C)C)c(/C=C/C(=O)c2ccccc2CN(C)C)c1` [Compound C036, (E)-3-[4-,(2-Dimethylamino-ethoxy)-2′-methoxy-biphenyl-3-yl]-1-(2-dimethylaminomethyl-phenyl)-propenone], the Solubility [1] was 1.8 mg/mL (≈ 3.92 mM) and the IC50 [7] was 0.2 µM.

For `COc1ccc(C(=O)/C=C/c2cc(-c3ccccc3OC)ccc2OCCN(C)C)c(F)c1` [Compound C015, (E)-3-[4-(2-Dimethylamino-ethoxy)-2′-methoxy-biphenyl-3-yl]-1-(2-fluoro-4-methoxy-phenyl)-propenone], the “potency against Gram-positive pathogens in comparison with Licochalcone A” value (shortened to “potency against Gram-positive pathogens”) [11] was “increased potency”, the IC50 (L. major promastigotes; L. major) was 0.1 µM and the “activity against anaerobic bacteria” value [3] was “activity against all microorganisms within the test panel”.

For `CN(C)CCCOc1ccc(C(C)(C)C)cc1/C=C/C(=O)c1ccccc1NS(=O)(=O)c1ccccc1` [Compound C042, N-(2-{3-[5-tert-Butyl-2-(3-dimethylamino-propoxy)-phenyl]-(E)-acryloyl}-phenyl)-benzenesulfonamide], the “potency against Gram-positive pathogens” value [11] was “increased potency”, the IC50 (L. major promastigotes; Leishmania major) was 0.2 µM and the “activity against anaerobic bacteria” value [3] was “activity against all microorganisms within the test panel”.

For `CN(C)CCOc1ccc(-c2ccccc2)cc1/C=C/C(=O)c1cccc(CN(C)C)c1` [Compound C037, (E)-3-[4-(2-Dimethylamino-ethoxy)-biphenyl-3-yl]-1-(3-dimethylaminomethyl-phenyl)-propenone], the “potency against Gram-positive pathogens” value [11] was “increased potency”, the Solubility [1] was 1.5 mg/mL (≈ 3.5 mM) and the IC50 (L. major promastigotes; L. major) was 0.5 µM.

In the case of `COc1ccc(C(=O)/C=C/c2cc(-c3cc(C)cc(C)c3)ccc2OCCN(C)C)c(OC)c1OC` [Compound C025, (E)-3-[4-(2-Dimethylamino-ethoxy)-3′,5′-dimethyl-biphenyl-3-yl]-1-(2,3,4-trimethoxy-phenyl)-propenone], the “activity against anaerobic bacteria” value [3] is reported as “activity against all microorganisms within the test panel”.

With `COc1ccc(C(=O)/C=C/c2cc(-c3cc(C)cc(C)c3)ccc2OCCN(C)C)c(F)c1` [Compound C024, (E)-3-[4-(2-Dimethylamino-ethoxy)-3′,5′-dimethyl-biphenyl-3-yl]-1-(2-fluoro-4-methoxy-phenyl)-propenone] the IC50 (L. major promastigotes; L. major) was 0.04 µM and the “Metabolic turn-over in vitro” value [10] was 3%.

Work on `Cc1ccccc1-c1ccc(OCCN(C)C)c(/C=C/C(=O)c2ccc(O)c(CN(C)C)c2)c1` [Compound C108, (E)-3-[4-(2-Dimethylamino-ethoxy)-2′-methyl-biphenyl-3-yl]-1-(3-dimethylaminomethyl-4-hydroxy-phenyl)-propenone] yielded a Solubility [1] of 18.1 mg/mL (≈ 39.5 mM).

In the case of `COc1ccc(C(=O)/C=C/c2cc(-c3ccccc3C)ccc2OCCN(C)C)cc1` [Compound C019, (E)-3-[4-(2-Dimethylamino-ethoxy)-2′-methyl-biphenyl-3-yl]-1-(4-methoxy-phenyl)-propenone], the “Inhibition of DHODH” value [2] is reported as 18% and the “times more potent than LicA” value (L. major promastigotes; dose-respons curve at Leishmania Major, FIG. 5) is reported as 100 times.

With `Cc1ccccc1-c1ccc(OCCN(C)C)c(CCC(=O)c2ccccc2CN(C)C)c1` [Compound C073, 3-[4-(2-Dimethylamino-ethoxy)-2′-methyl-biphenyl-3-yl]-1-(2-dimethylaminomethyl-phenyl)-propan-1-one] the solubility at 24 h ([1]; 0.3 M phosphate buffer, thermodynamic from solid) was > 10 mg/mL.

With `COc1ccc(C(=O)/C=C/c2ccccc2)cc1` [4′MC, 4′-methoxy chalcone, reference compound] the antibacterial effect [11] was “no antibacterial effect at all” and the “Inhibition of DHODH” value [2] was 7%.

`Cc1ccccc1-c1ccc(OCCN2CCCC2)c(/C=C/C(=O)c2ccccc2CN(C)C)c1` [Compound C136, (E)-1-(2-Dimethylaminomethyl-phenyl)-3-[2′-methyl-4-(2-pyrrolidin-1-yl-ethoxy)-biphenyl-3-yl]-propenone] gave a Solubility [1] of 5.5 mg/mL (≈ 11.7 mM).
